According to ChEMBL document CHEMBL1126371, “Indazole and indoline as aromatic bioisosteres in the imidazole class of serotonin 5-HT3 receptor antagonists” (Bioorg Med Chem Lett, 1992):
The source made the active and inactive calls. No cut-off for these calls is given here.

Legend:
[1] = system: Rattus norvegicus; test: Dose required for inhibition of bradycardia induced by a submaximal dose (iv) of 5-HT in 5 rats; type: functional; conditions: read-out: ID50 (the source's name)
[2] = system: Rattus norvegicus; test: Dose required for inhibition of bradycardia induced by a submaximal dose (iv) of 5-HT in 6 rats; type: functional; conditions: read-out: ID50 (the source's name)
[3] = system: Rattus norvegicus; test: Dose required for inhibition of bradycardia induced by a submaximal dose (iv) of 5-HT in 4 rats; type: functional; conditions: read-out: ID50 (the source's name)
[4] = system: Rattus norvegicus; test: Percent maximum inhibition against Bezold-Jarisch reflex in 5 rats at a dose of 6 ug/kg, iv; type: functional
[5] = system: Rattus norvegicus; test: Time required to achieve 50% recovery of Bezold-Jarisch reflex in 5 rats at a dose of 6 ug/kg, iv; type: functional
[6] = system: Rattus norvegicus; test: Dose required for inhibition of bradycardia induced by a submaximal dose (iv) of 5-HT in 8 rats; type: functional; conditions: read-out: ID50 (the source's name)
[7] = system: Rattus norvegicus; test: Time required to achieve 50% recovery of Bezold-Jarisch reflex in 9 rats at a dose of 6 ug/kg, iv; type: functional
[8] = target: Serotonin 2 (5-HT2) receptor (Rattus norvegicus) (UniProt P30994+P08909+P14842); test: Tested for the effect on binding at 5-hydroxytryptamine 2 receptor; No activity; type: protein assay
Serotonin 2 (5-HT2) receptor (Rattus norvegicus), sequence (P14842 whole entry, looked up, one chain of several): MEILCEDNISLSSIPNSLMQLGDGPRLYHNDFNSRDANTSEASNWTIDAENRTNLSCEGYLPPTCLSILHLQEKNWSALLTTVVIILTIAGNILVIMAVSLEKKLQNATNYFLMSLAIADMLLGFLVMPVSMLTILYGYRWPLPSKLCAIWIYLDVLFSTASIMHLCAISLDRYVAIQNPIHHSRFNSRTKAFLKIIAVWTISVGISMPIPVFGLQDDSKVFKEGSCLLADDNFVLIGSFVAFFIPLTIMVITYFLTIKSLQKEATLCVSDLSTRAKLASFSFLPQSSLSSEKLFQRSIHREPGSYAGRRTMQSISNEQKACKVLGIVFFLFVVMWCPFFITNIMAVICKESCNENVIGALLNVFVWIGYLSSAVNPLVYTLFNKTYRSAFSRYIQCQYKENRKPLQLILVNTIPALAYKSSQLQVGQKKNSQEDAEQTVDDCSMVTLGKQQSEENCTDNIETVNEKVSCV
Serotonin 2 (5-HT2) receptor (Rattus norvegicus), sequence (P30994 whole entry, looked up, one chain of several): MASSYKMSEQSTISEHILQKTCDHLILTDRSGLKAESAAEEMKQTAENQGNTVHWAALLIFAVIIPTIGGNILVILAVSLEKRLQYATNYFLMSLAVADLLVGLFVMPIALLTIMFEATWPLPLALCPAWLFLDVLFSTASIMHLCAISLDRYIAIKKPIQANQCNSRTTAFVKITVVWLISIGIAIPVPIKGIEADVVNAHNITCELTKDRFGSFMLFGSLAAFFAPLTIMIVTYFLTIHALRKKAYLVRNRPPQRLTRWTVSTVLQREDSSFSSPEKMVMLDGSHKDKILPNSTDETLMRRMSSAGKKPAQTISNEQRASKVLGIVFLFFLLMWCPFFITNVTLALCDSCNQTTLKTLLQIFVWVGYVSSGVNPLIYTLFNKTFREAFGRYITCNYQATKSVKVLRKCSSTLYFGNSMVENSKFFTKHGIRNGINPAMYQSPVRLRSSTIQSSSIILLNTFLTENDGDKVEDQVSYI

[9] = target: Serotonin 3 (5-HT3) receptor; test: Tested for antagonistic activity on 5-hydroxytryptamine 3 receptor mediated effects of 5-HT in guinea pig isolated ileum; type: functional, tissue-based, Cavia porcellus
[10] = target: T1, 5-hydroxytryptamine receptor 2C (Rattus norvegicus) (UniProt P08909); test: Tested for the effect on binding at 5-hydroxytryptamine 1C receptor; No activity
T1 sequence (whole entry): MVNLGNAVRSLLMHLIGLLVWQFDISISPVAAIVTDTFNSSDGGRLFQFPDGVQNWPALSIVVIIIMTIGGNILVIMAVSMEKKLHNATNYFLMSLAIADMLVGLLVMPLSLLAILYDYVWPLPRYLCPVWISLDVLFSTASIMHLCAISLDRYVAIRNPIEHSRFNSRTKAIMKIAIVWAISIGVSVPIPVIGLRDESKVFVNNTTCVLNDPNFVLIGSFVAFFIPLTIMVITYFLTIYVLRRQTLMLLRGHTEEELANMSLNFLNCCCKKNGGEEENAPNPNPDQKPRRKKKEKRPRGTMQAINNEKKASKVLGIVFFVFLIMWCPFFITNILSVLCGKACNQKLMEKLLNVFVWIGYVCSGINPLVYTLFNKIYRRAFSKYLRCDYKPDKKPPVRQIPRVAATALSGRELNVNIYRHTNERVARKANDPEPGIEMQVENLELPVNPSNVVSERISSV

[11] = system: Mustela putorius furo; test: Reduction in the number of episodes of emesis in 4 ferrets at a dose of 0.5 mg/kg, po; type: functional
[12] = system: Rattus norvegicus; test: Percent maximum inhibition against Bezold-Jarisch reflex in 4 rats at a dose of 6 ug/kg, iv, after 5 min; type: functional
[13] = system: Mustela putorius furo; test: Reduction in the number of episodes of emesis in ferrets at a dose of 0.01 mg/kg, po; type: functional
[14] = system: Mustela putorius furo; test: Reduction in the latency period to the first episode in ferret at a dose of 0.01 mg/kg, po; type: functional
[15] = system: Rattus norvegicus; test: Time required to achieve 50% recovery of Bezold-Jarisch reflex in 4 rats at a dose of 6 ug/kg, iv; type: functional
[16] = target: 5-hydroxytryptamine receptor 4 (Rattus norvegicus) (UniProt Q62758); test: Tested for the effect on binding at 5-hydroxytryptamine 4 receptor; No activity
5-hydroxytryptamine receptor 4 (Rattus norvegicus), sequence (Q62758 whole entry): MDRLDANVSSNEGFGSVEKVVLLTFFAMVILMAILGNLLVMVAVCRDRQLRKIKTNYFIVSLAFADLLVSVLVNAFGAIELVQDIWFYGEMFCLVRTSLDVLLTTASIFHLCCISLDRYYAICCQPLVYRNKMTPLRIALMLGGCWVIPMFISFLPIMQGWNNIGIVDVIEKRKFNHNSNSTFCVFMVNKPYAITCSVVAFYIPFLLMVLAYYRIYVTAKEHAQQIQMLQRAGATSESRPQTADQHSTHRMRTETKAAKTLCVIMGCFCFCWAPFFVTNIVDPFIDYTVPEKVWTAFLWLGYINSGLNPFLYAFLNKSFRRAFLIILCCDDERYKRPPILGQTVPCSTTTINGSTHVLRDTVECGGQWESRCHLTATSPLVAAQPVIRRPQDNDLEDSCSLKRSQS

[17] = target: 5-hydroxytryptamine receptor 1D (Rattus norvegicus) (UniProt P28565); test: Tested for the effect on binding at 5-hydroxytryptamine 1D receptor; No activity
5-hydroxytryptamine receptor 1D (Rattus norvegicus), sequence (P28565 whole entry): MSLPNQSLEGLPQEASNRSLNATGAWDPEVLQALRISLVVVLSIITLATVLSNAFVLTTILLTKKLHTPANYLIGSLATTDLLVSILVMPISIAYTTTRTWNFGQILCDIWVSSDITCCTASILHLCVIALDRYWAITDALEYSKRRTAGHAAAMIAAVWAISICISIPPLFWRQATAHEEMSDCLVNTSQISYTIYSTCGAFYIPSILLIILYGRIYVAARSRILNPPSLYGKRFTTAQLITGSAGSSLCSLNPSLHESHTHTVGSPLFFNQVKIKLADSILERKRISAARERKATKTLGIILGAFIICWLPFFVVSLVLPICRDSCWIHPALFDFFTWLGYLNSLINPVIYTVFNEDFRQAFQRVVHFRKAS

[18] = target: T2, 5-hydroxytryptamine receptor 1A (Rattus norvegicus) (UniProt P19327); test: Tested for the effect on binding at 5-hydroxytryptamine 1A receptor; No activity
T2 sequence (whole entry): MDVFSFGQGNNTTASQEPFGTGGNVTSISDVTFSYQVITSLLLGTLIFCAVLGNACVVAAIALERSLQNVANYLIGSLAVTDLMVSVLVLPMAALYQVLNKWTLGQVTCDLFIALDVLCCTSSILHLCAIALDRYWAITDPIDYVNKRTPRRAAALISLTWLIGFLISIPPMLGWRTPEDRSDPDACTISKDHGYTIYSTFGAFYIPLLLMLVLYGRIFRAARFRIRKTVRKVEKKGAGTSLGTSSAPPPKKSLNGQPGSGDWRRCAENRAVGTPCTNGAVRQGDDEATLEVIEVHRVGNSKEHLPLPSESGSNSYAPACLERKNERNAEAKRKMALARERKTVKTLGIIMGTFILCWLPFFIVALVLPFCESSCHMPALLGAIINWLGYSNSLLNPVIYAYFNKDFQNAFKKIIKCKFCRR

[19] = system: Mustela putorius furo; test: Reduction in the latency period to the first episode in ferret at a dose of 0.5 mg/kg, po; type: functional
[20] = target: Alpha-2 adrenergic receptor (Rattus norvegicus); test: Affinity at Alpha-2 adrenergic receptor in rat brain
[21] = system: Rattus norvegicus; test: Dose required for inhibition of bradycardia induced by a submaximal dose (iv) of 5-HT in 3 rats; type: functional; conditions: read-out: ID50 (the source's name)
[22] = system: Rattus norvegicus; test: Dose required for inhibition of bradycardia induced by a submaximal dose (iv) of 5-HT in 7 rats; type: functional; conditions: read-out: ID50 (the source's name)

COc1ccccc1NC(=O)CCc1[nH]cnc1C
ED50 [1]: 0.02 mg/kg

Cc1[nH]cnc1CCC(=O)c1nn(C)c2ccccc12
ED50 [2]: 3.1 µg/kg

Cc1nccn1CC1CCc2c(c3ccccc3n2C)C1=O (centres undefined) [ONDANSETRON]
ED50 [3]: 3.6 µg/kg | inhibition in vivo at 0.006 mg/kg [4]: 68% | Duration [5]: 14 min

CN1C2CCC1CC(NC(=O)N1CC(C)(C)c3ccccc31)C2 (centres undefined)
ED50 [6]: 0.67 µg/kg

CN1C2CCCC1CC(NC(=O)c1nn(C)c3ccccc13)C2 (centres undefined) [GRANISETRON]
Duration [7]: 46 min

Cc1[nH]cnc1CCC(=O)N1CC(C)(C)c2ccccc21
Activity [8]: inactive | pA2 [9]: 8.1 | ED50 [3]: 2.2 µg/kg | Activity [10]: inactive | Reduction [11]: 1.3 | inhibition in vivo at 0.006 mg/kg [12]: 91% | Reduction [13]: 7.7 | Latency time [14]: 22.5 min | Duration [15]: 66 min | Activity [16]: inactive | Activity [17]: inactive | Activity [18]: inactive | Latency time [19]: 90.5 min | Log Ki [20]: -6.2

CC1(C)CN(C(=O)CCc2c[nH]cn2)c2ccccc21
ED50 [21]: 4.2 µg/kg

COc1ccccc1NC(=O)CCc1c[nH]cn1
ED50 [1]: 0.035 mg/kg

COc1ccccc1NC(=O)NC1CC2CCC(C1)N2C (centres undefined)
ED50 [22]: 2.5 µg/kg
